# Measurements reported in patent US9186318B2, “Quinolyl-containing hydroxamic acid compound and preparation method thereof, and pharmaceutical composition containing this compound and use thereof” (Beijing Konruns Pharmaceutical Co., Ltd, priority 2011, dated 2015).
# How the values were obtained:
# [1] = tested on: GTL-16 gastric cancer cells; experiment: Anti-tumor experiment in xenograft nude mice; assay type: in vivo, BALB/c-nu/nu mice; settings: GTL-16 xenograft nude mice, 75 mg/kg oral gavage once a day; for Tumor Growth Inhibition (TGI): 14 days; for average tumor volume: after 14 days, mean±SD, n=6
# Text: In this example, N1′-[3-fluoro-4-[[7-[[1-[2-(hydroxyamino)-2-oxoethyl]-4-piperidyl]methoxy]-6-methoxy-4-quinolyl]oxy]phenyl]-N1-(4-fluorophenyl)cyclopropane-1,1-dicarboxamide prepared in Example 1 was used to conduct anti-tumor experiment in xenograft nude mice animal models of human gastric cancer. The method and results of the experiment were as follows.
# 4 to 5-week-old SPF level female BALB/c-nu/nu mice with body weight of 12 g to 16 g were purchased from Beijing Vital River Laboratory Animal Technology Co., Ltd., with the production license number: SCXK (Beijing) 2006. GTL-16 gastric cancer cells were purchased from Shanghai Institutes for Biological Sciences Cell Resource Center. RPM 1-1640 cell culture media, fetal bovine serum (FBS) and trypsin digestion solution were purchased from Gibco. Various antibiotics were purchased from Sigma.
# (§1) GTL-16 gastric cancer cells were firstly cultured: GTL-16 cell lines were inoculated in RPM 1-1640 culture medium contain 10% FBS, 100 U/ml penicillin, 100 U/ml streptomycin and cultured under the condition of 37° C., 5% CO2 and 100% humidity in a carbon dioxide incubator. The logarithmic growth phase reached upon 24 h, and the cells completely covered the bottom of the culture flask at approximately 48 h after inoculation. Those with 80% of GTL-16 cells covering the bottom of the culture flask were digested and centrifuged at 1000 r/min for 5 min. The cells were diluted to 2×10^7/ml, and implanted subcutaneously in the right anterior axillary of the nude mice at 0.1 mL per mouse. Starting from 12 days after inoculation of tumor cells, the weight of the tumor-bearing nude mice and the size of tumors were measured, and the mice with tumor sizes ranging from 150-200 mm^3 were randomly divided into vehicle control group (Vehicle was 0.25% methanesulfonic acid) and treatment group in which the mice were treated with N1′-[3-fluoro-4-[[7-[[1-[2-(hydroxyamino)-2-oxoethyl]-4-piperidyl]methoxy]-6-methoxy-4-quinolyl]oxy]phenyl]-N1-(4-fluorophenyl)cyclopropane-1,1-dicarboxamide prepared in Example 1 with 6 mice each group. Thereafter, the nude mice were weighed daily and the oral administrations were performed at 0.1 mL/10 g body-weight through oral gavage method (75 mg/kg, once a day). The tumor size of each animal was measured every 2 days. 14 days later, the tumor-bearing mice were sacrificed by cervical dislocation and the tumors were removed and weighed. The calculation method of Tumor Growth Inhibition (TGI) was as follows: the experimental data were represented by mean±SD; TGI=[(Vvehicle group−Vtreatment group)÷Vvehicle group]×100%, wherein Vvehicle group represented the mice tumor volume of the vehicle group and Vtreatment group represented the mice tumor volume of the treatment group. […]
# [2] = Body weight of mice in the anti-tumor experiment; assay type: in vivo, BALB/c-nu/nu mice; settings: treatment group, 75 mg/kg oral once a day; after 14 days treatment
# Procedure: as §1, with “Thereafter, the nude mice were weighed daily and the oral administrations were performed at 0.1 mL/10 g body-weight through oral gavage method (75 mg/kg, once a day).” left out, “days.” for “days. 14 days later, the tumor-bearing mice were sacrificed by cervical dislocation and the tumors were removed and weighed. The calculation method of Tumor Growth Inhibition (TGI) was as follows: the experimental data were represented by mean±SD; TGI=[(Vvehicle group−Vtreatment group)÷Vvehicle group]×100%, wherein Vvehicle group represented the mice tumor volume of the vehicle group and Vtreatment group represented the mice tumor volume of the treatment group.”
SMILES,Tumor Growth Inhibition (TGI) [1] [%],average tumor volume [1] [mm^3],weight variation of mice [2] [%]
"COc1cc2c(Oc3ccc(NC(=O)C4(C(=O)Nc5ccc(F)cc5)CC4)cc3F)ccnc2cc1OCCCC(=O)NO [Example 9, N1′-[3-fluoro-4-[[7-[4-(hydroxyamino)-4-oxobutoxy]-6-methoxy-4-quinolyl]oxy]phenyl]-N1-(4-fluorophenyl)cyclopropane-1,1-dicarboxamide]",87,241.1±131.4,–
"COc1cc2c(Oc3ccc(NC(=O)C4(C(=O)Nc5ccc(F)cc5)CC4)cc3F)ccnc2cc1OCC1CCN(CC(=O)NO)CC1 [Example 1, N1′-[3-fluoro-4-[[7-[[1-[2-(hydroxyamino)-2-oxoethyl]-4-piperidyl]methoxy]-6-methoxy-4-quinolyl]oxy]phenyl]-N1-(4-fluorophenyl)cyclopropane-1,1-dicarboxamide]",65,630.9±354.6,< 10
